Test results taken from patent US9808434B2, “Compound for treating cancer and diabetes” (CITY OF HOPE, priority 2011, dated 2017).

Experiments:
[1] = tested on: PBT018; experiment: Glioma ATP viability assay, PBT018; assay type: cell-based; details: Table 1; 72 hours
Method: Cells of each cell line (U251, U87, PBT-017, PBT018, PBT003 and PBT028) were treated with various concentrations (0˜100 μM) of COH-SR4 for 72 hours. Cell viabilities were determined by ATP viability assays. Data were represented as a ratio to vehicle (DMSO) control, and plotted as mean±SEM (n=12) obtained from 2˜3 experiments (FIG. 34A).

[2] = tested on: HUVEC cells; experiment: HUVEC cytotoxicity; assay type: cell-based; details: 48 hours, up to 10 μM
Method: HUVEC were treated with COH-SR4 at a concentration from 0.1˜100 μM for 48 hours.

[3] = tested on: melanoma cells; experiment: MTT assay, melanoma cell lines of various mutational status; assay type: cell-based; details: 48 h, regardless of mutational status; read-out: IC50 values across melanoma cell lines
Method: Cell density measurements were performed using a hemocytometer to count reproductive cells resistant to staining with trypan blue. Approximately 20,000 cells were plated into each well of 96-well flat-bottomed micro-titer plates. After 12 h or 24 h incubation at 37° C., medium containing either COH-SR4 (ranging 0-200 μM) or elesclomol (ranging 0-20 μM) were added to the cells. After 24 h, 48 h or 96 h incubation, 20 μL of 5 mg/mL MTT were introduced to each well and incubated for 2 h. The plates were centrifuged and medium was decanted. Cells were subsequently dissolved in 100 μl DMSO with gentle shaking for 2 h at room temperature, followed by measurement of OD570 (91).

[4] = tested on: B16-F0 and A2058 melanoma cells; experiment: TUNEL apoptosis assay, melanoma; assay type: cell-based; details: 24 h
Method: For TUNEL assay, 1×10^5 cells were grown on the cover slips for ˜12 h followed by treatment with COH-SR4 (5 μM or 10 μM) or elesclomol (5 μM) for 24 h. Apoptosis was determined by the labeling of DNA fragments with terminal deoxynucleotidyl-transferase dUTP nick-end labeling (TUNEL) assay using Promega fluorescence apoptosis detection system, and examined using Zeiss LSM 510 META laser scanning fluorescence microscope with filters 520 and 620 nm according to the protocol described previously (91). Photographs taken at identical exposure at ×400 magnification are presented.

[5] = tested on: H-358 and H-520 cells; experiment: Cell cycle FACS analysis, lung cancer; assay type: cell-based, human
Method: 2×10^5 cells were treated with COH-SR4 (0 μM, 5 μM or 10 μM) for 18 h at 37° C. After treatment, floating and adherent cells were collected, washed with PBS, and fixed with 70% ethanol. On the day of flow analysis, cell suspensions were centrifuged; counted and same numbers of cells were resuspended in 500 μL PBS in flow cytometry tubes. Cells were then incubated with 2.5 μL of RNase (stock 20 mg/mL) at 37° C. for 30 min after which they were treated with 10 μL of propidium iodide (stock 1 mg/mL) solution and then incubated at room temperature for 30 min in the dark. The stained cells were analyzed using the Beckman Coulter Cytomics FC500, Flow Cytometry Analyzer. Results were processed using CXP2.2 analysis software from Beckman Coulter.
In the context of the elevation of GSTs in lung cancer, the impact of COH-SR4 on the catalytic activity of GSTs towards 1-chloro 2,4-dinitro benzene (CDNB), a model substrate used for GST activity was analyzed. GST activity towards 1-chloro 2,4-dinitro benzene (CDNB) and its inhibition by COH-SR4 was performed in 28000×g crude supernatant prepared from H1417, H1618, H520 and H358 cells. The inhibitory effect of COH-SR4 on GST was studied at a fixed concentration of GSH and CDNB (1 mM each) and varying concentrations of inhibitor. The enzymes were pre-incubated with the inhibitor for 5 min at 37° C. prior to the addition of the substrates. […]

[6] = tested on: mouse C2C12, HepG2, and 3T3-L1 cells; experiment: Oxygen consumption rate in myotubes, liver cells, adipocytes; assay type: cell-based
Method: Oxygen consumption rate (OCR), a measure of OxPhos, and extracellular acidification rate (ECAR), a measure of lactate production by glycolysis, were measured using a Seahorse Xf^e96 Flux Analyzers (Seahorse Biosciences, North Billerica, Mass.). Cells were seeded in DMEM media in Seahorse 96-well tissue culture plates at a density of 5×10^3 cells/well and allowed to adhere for 24 h. Prior to the assay, the media was changed to unbuffered DMEM containing 25 mM glucose, 1 mM pyruvate and 1 mM glutamine, with 0.2% fatty acid/endotoxin-free BSA (w/v) (pH 7.4) and the cells were equilibrated for 30 min at 37° C. Test compounds were injected during the assay and OCR and ECAR were measured using 2-3 min measurement periods. Similar sets of experiments were performed in the presence of the mitochondria recoupler agent 6-KCH or the mitochondrial permeability transition (MPT) pore blocker CSA, where each compound was injected into the assay media prior to COH-SR4 or FCCP injection. In separate experiments with A2058 and A2058 p° cells, a modified Mitostress test was performed accordingly per Seahorse protocols (89, 90). […] OCR was measured throughout the different injections of the stressors and test compounds (indicated by arrows in the figures). […]

O=C(Nc1cc(Cl)cc(Cl)c1)Nc1cc(Cl)cc(Cl)c1 [COH-SR4, 1,3-bis(3,5-dichlorophenyl) urea]
IC50 [1]: 6.5 µM
cytotoxicity to HUVEC cells [2]: almost no cytotoxicity
IC50 [3]: 1.2 to 4.8 µM
apoptosis (DNA fragmentation, TUNEL) ([4]; 5 μM): induced apoptosis
apoptosis (DNA fragmentation, TUNEL) ([4]; 10 μM): induced apoptosis
cell cycle arrest [5]: induced G0/G1 phase arrest in a concentration dependent manner
OCR [6]: dose- and time dependently increased the OCR
